From article PMC6261607, “Novel high–throughput myofibroblast assays identify agonists with therapeutic potential in pulmonary fibrosis that act via EP2 and EP4 receptors” (PLoS ONE, 2018) come the findings set out here.

For experiment [1], the system named is normal human lung fibroblasts (NHLF). The experiment can be described thus: Phenotypic high-content assay (HCA) of TGF–β1–induced fibroblast–to–myofibroblast differentiation. Particulars: NHLF, 5 ng/ml TGF–β1 for 48 h, compound added with TGF–β1; mean ± SD; read-out: HCA IC50. Type of experiment: cell-based. Summed up: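 NHLF starved 24 h in serum-free basal medium with 0.1% BSA, then given compounds together with 5 ng/ml TGF-β1 for 48 h (0.6% DMSO). Methanol-fixed cells imaged for DAPI, α-SMA and FN; an SVM trained on ±TGF-β1 controls classified each cell, giving per-well % myofibroblast differentiation and nuclear counts.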

Experiment [2] shares this test system. The experiment can be described thus: Nuclear count in the HCA, standard assay. Format: cell-based. The note with it: standard HCA, NHLF, 5 ng/ml TGF–β1, 48 h; read-out: Nuclear count IC50. On the procedure:
The plate was washed 3 times with starvation medium, e.g. fibroblast basal medium (FBM, Lonza) supplemented with 0.1% faf BSA, 100 units / ml of penicillin and 100 μg / ml of streptomycin and 250 ng / ml amphotericin B, and then starved for 24 h in 30 μl volume. NHLF were differentiated into myofibroblasts by incubation with 5 ng / ml TGF–β1 (from a stock of 20 μg / ml in 4 mM HCl, 1 mg / ml BSA) for 48 h. Compounds were prepared as 5x stocks in starvation medium and added to the starved cells to a final 1x concentration concomitant with TGF–β1 addition. The final DMSO concentration in the assay was 0.6% in all wells. 48 h after TGF–β1 addition, the medium was removed and the cells were fixed in methanol for 10 min at room temperature (RT). After fixation, cells were washed 3 times with 1 x PBS and either stored at 4°C for up to 3 days or further processed. […] Images were acquired on the Opera Phenix confocal high–content screening system (Perkin Elmer) using the 20–x water immersion lens.
DAPI stained nuclei were used to identify cells. α–SMA and FN regions were then identified and mapped to the corresponding nuclei for background correction, cell segmentation and cell feature computation to identify, classify and weigh over 400 features per cell. The computed features (S1 Table) comprise, but are not limited to, granularity, intensity, texture, area, shape and solidity of a cell in both α–SMA–and FN–expressing regions. The 0% compound effect (5 ng / ml TGF–β1) and the 100% compound effect (0 ng / ml TGF–β1) controls, were used to train and validate a support vector machine (SVM), a supervised learning model with associated learning algorithm that, once successfully validated, was applied to every cell in every well of the assayed microtiter plate. The SVM allowed autonomous weighting and classification of the characteristics and thus enabled the classifier to decide which characteristics were most relevant for the differentiation of the cell types. […] The classification of each cell was aggregated to a cell type ratio per well, represented as the computed percentage effect value per well indicative of the degree of myofibroblast differentiation. E.g. 100% equals complete myofibroblast differentiation, 0% indicates a pure fibroblast population without any signs of differentiation.

The subject of experiment [3] is α–SMA protein in TGF–β1–induced NHLF myofibroblasts. As to the kind of experiment: MS/MS α–SMA, NHLF myofibroblast reversal assay. Type of experiment: cell-based, human. Particulars: reversal assay: 24 h 5 ng/ml TGF–β1, washed, 72 h compound; normalized to tubulin; read-out: MS / MS α–SMA IC50. On the procedure:
(§1) Cell culture medium was removed and cells were lysed on ice by adding 5 μl / well of pre–cooled protein extraction buffer containing 10 mM Tris–HCl (pH 8.0), 6 M urea and 2 M thiourea and shaking on ice on a plate shaker at 600 rpm for 30 min.
(§2) Cell lysate was transferred to a 96–well polypropylene–PCR–plate. 15 μl / well denaturation buffer (6 M urea, 50 mM ammonium bicarbonate) and 2 μl / well of 50 mM TCEP were added and samples were denatured for 1 h at 60°C using the Veriti 96–well Fast Thermal Cycler System (Applied Biosystem) with a heated lid. Plates were allowed to cool to RT. Subsequently, 2 μl of 100 mM iodoacetamide were added per well to derivatize cysteine residues. Plates were then sealed and vortexed for 2 min in the dark and incubated for 30 min at 37°C in a thermal cycler with a heated lid. 90 μl of 50 mM ammonium bicarbonate pH 7.8 were added, followed by the addition of 10 μl of trypsin at 0.02 μg / ml. Samples were trypsin–digested overnight at 37°C in a thermal cycler with heated lid. […] Samples were desalted under vacuum using an Oasis HLB 96–well (30 μm particle size, 5 mg sorbent / well) reverse phase cartridge according to the manufacturer’s instructions and eluted with 170 μl of 90% acetonitrile, 0.1% formic acid. Samples were dried down with a flow of nitrogen at 40°C, left to cool to RT and re–suspended in 40 μl 5% acetonitrile, 0.1% formic acid on a plate shaker set to 1400 rpm for 5 min. Plates were centrifuged at 4,000 rpm for 10 min and 2 times 12 μl / well of supernatant were transferred into separate 96–well plates (Greiner Bio–One), sealed and stored at 4°C until analyzed by MS / MS.
(§3) Surrogate tryptic peptides were chosen for detection of COL1 (COL1A1), α–SMA (ACTA) and tubulin (TBA1A1) and crude synthetic peptides were purchased from Thermo Fischer. After several rounds of optimization following standard workflows, […] (COL1 / COL1A1), […] (α–SMA / ACTA) and […] LC–MS / MS analysis was performed on a RapidFire™ RF360 system (Agilent Technologies) coupled to an API 5500 (ABSciex) with positive ion electrospray ionization. […] Detection was performed using multiple reaction monitoring (MRM) mode to monitor parent⟶product ion transitions (m / z). […] The source parameters were curtain gas (CUR) nitrogen: 20 psig; collision gas (CAD): 7 psig; ion source gas 1: 50.0 psig; ion source gas 2: 50.0 psig; ion spray voltage (IS): 5500 V; turbo heater temperature (TEM): 600°C; entrance potential (EP): 10V. Peak areas for COL1A1 and ACTA were normalized by dividing by TBA1A peak area.
(§4) To identify compounds with potential to revert differentiated myofibroblasts to fibroblasts the assay procedures were modified. After 24 h starvation, NHLF cells were stimulated with 5 ng / ml TGF–β1 for 24 h. At t = 24 h TGF–β1 was removed and either vehicle (DMSO) or compounds were added and incubated with the cells for a further 72 h.

Experiment [4] deals with α–SMA protein in NHLF cells. As to the kind of experiment: RapidFire MS/MS quantification of α–SMA (IPQA), standard assay. Format: cell-based, human. The note with it: NHLF, 5 ng/ml TGF–β1, lysed 48 h after TGF–β1, normalized to tubulin; mean ± SD; read-out: MS / MS α–SMA IC50. On the procedure: as §1, §2, §3
In experiment [5] the test system is COL1 protein in NHLF cells. The experiment can be described thus: RapidFire MS/MS quantification of COL1 (IPQA), standard assay. The note with it: NHLF, 5 ng/ml TGF–β1, lysed 48 h after TGF–β1, normalized to tubulin; mean ± SD; read-out: MS / MS COL1 IC50. Type of experiment: cell-based, human. On the procedure: as §1, §2, §3
Experiment [6] has as its system normal human lung fibroblasts (NHLF). As to the kind of experiment: Impedance measurement of TGF–β1–induced myofibroblast transition (IPQA), standard assay. Particulars: 5 ng/ml TGF–β1, compound added with TGF–β1, impedance at t = 20 h post TGF–β1, mean ± SD, read-out: Impedance IC50. Format: cell-based. The method, then: (§5) To measure dynamic cell shape and adhesion changes during fibrotic transdifferentiation, NHLF were seeded at a density of 20,000 cells per well in FGM–2 growth medium (Lonza) containing 100 units / ml of penicillin and 100 μg / ml of streptomycin into E–plates with continued impedance signal measurement (xCELLigence system, Roche Applied Science). After overnight growth, the medium was exchanged for FBM (Lonza) supplemented with 100 units / ml of penicillin and 100 μg / ml of streptomycin and 0.1% faf BSA and cells were starved for 32 h. Compound dilution series were added and myofibroblast transition was induced by adding TGF–β1 at a concentration of 5 ng / ml, followed by continued impedance sampling for up to 48 h. For data analysis, impedance raw traces were normalized to the time point of compound addition and the baseline response (DMSO, non–TGF–β1 treated cells) was subtracted. In some cases, impedance values at defined time points were used to generate concentration–response curves to determine compound potency and efficacy using GraphPad Prism software version 7 (GraphPad Software Inc).

The subject of experiment [7] is COL1 protein in TGF–β1–induced NHLF myofibroblasts. As to the kind of experiment: MS/MS COL1, NHLF myofibroblast reversal assay. Format: cell-based, human. Particulars: reversal assay: 24 h 5 ng/ml TGF–β1, washed, 72 h compound; normalized to tubulin; read-out: MS / MS COL1 IC50. The method, then: as §1, §2, §3, §4
The test system of experiment [8] is rat lung myofibroblasts (RLMyoF). The experiment can be described thus: Impedance in primary myofibroblasts from fibrotic rat lungs. Type of experiment: cell-based, Wistar rat. Particulars: S8 Fig.
Description: Isolation of fibroblasts from the right middle lung lobe of bleomycin–instilled 20–month old Wistar rats. […] On day 0, rats (n = 3) were anesthetized with isoflurane and instilled intra–tracheally with 315 mg of bleomycin sulfate (Baxter) in a volume of 210 μl followed by 210 μl of air to equally distribute the substance in the lung. On day 28, rats were euthanized using isoflurane (5%), exsanguinated and right lung middle lobes (RML) were collected in a sterile culture dish on ice in Dulbecco's Modified Eagle's Medium (DMEM) / F12 (1:1, Thermo Fisher), minced, washed 3 times with DMEM / F12 medium and digested with 0.1% collagenase (Collagenase II–S: Invitrogen) and 15 μg / ml DNase (DNase I, Sigma) in DMEM / F12 medium in a shaking water bath at 37°C for 15 min. Digests were separated by gravity and the supernatant was transferred to a new vial supplemented with 4 volumes of ice–cold starter medium consisting of DMEM / F12 (1:1), 10% (v / v) fetal bovine serum (PAA), 1% (v / v) penicillin / streptomycin 100 U / 100 μg / ml (Thermo Fisher), and insulin / transferrin / sodium selenite (Thermo Fisher). Then, the cell suspension was passed through a cell strainer by centrifugation at 1600 rpm at 4°C for 10 min. The pelleted cells were resuspended in pre–warmed (37°C) starter medium and seeded in a cell culture dish. After 60 minutes, the medium was replaced by new starter medium. After 24 hours, the medium was exchanged for DMEM / F12 to which 10% (v / v) fetal bovine serum and 1% penicillin / streptomycin was added.
In experiment [9] the test system is TGF–β1–induced NHLF myofibroblasts. As to the kind of experiment: cells. The note with it: reversal assay: 24 h 5 ng/ml TGF–β1, washed, then compound; impedance data at t = 20 h. Format: cell-based. On the procedure:
as §5, §4

SMILES strings stand for the structures. Like-named read-outs stand apart in the source and are kept apart here.

In the case of `CCn1c(-c2nonc2N)nc2cnc(Oc3cccc(NC(=O)c4ccc(OCCN5CCOCC5)cc4)c3)cc21` [GSK–269962], the IC50 in experiment [1] was 240 ± 270 nM; in experiment [2] it was over 50000 nM; in experiment [3], 35 nM; in [4], 22 ± 1 nM; in [5], 3100 nM; in experiment [6] it was 1010 nM. Further, the IC50 is 537 nM in experiment [7]; 11 nM in [8] (read-out: RLMyoF impedance IC50 (3 h), impedance at 3 h); 133 nM in experiment [8] (read-out: RLMyoF impedance IC50 (20 h), impedance at 20 h); over 10000 nM in [9].
